Non-standard residues stand in square brackets, D forms with d. Residues, ends and D or L forms follow the SMILES beside them. *: point of attachment. NMeI = CC[C@H](C)[C@H](NC)C(=O)O; NMeD = CN[C@@H](CC(=O)O)C(=O)O; NMeV = CN[C@H](C(=O)O)C(C)C; Pip = O=C(O)[C@@H]1CCCCN1; Lac = C[C@H](O)C(=O)O; OtBu = CC(C)(C)O*
Experiments:
KB [1] = experiment: The sensitizing capacity of compound for colchicine treatment of multi drug resistance in KB cell was measured at concentration 1.0(mg/L); format: functional, Homo sapiens
KB [2] = experiment: The sensitizing capacity of compound for colchicine treatment of multi drug resistance in KB cell was measured at concentration 3.0 (mg/L); format: functional, Homo sapiens
CHO [3] = experiment: The sensitizing capacity for colchicine treatment of parental (PAR)CHO cells at concentration 1.0 (mg/L); format: functional, Cricetulus griseus
CHO [4] = experiment: Sensitization of colchicine treated parental (PAR)CHO cells, measured at concentration 0.1(mg/L); format: functional, Cricetulus griseus
CHO [5] = experiment: The sensitizing capacity for colchicine treatment of multi drug resistance(MDR) in CHO cell at concentration 0.1(mg/L).; format: functional, Cricetulus griseus
CHO [6] = experiment: The sensitizing capacity for colchicine treatment of multi drug resistance (MDR) CHO cell at concentration 1.0(mg/L).; format: functional, Cricetulus griseus

| SMILES | Activity (KB [1]) | Activity (KB [2]) | Activity (CHO [3]) | Activity (CHO [4]) | Activity (CHO [5]) | Activity (CHO [6]) |
| --- | --- | --- | --- | --- | --- | --- |
| CC[C@H](C)[C@H]1C(=O)NCC(=O)N(C)[C@@H](C(C)C)C(=O)N[C@@H](Cc2ccc(OC)cc2)C(=O)O[C@@H](C)C(=O)N2CCCC[C@H]2C(=O)N(C)[C@@H](C(C)C)C(=O)N[C@@H](C(C)C)C(=O)N(C)[C@@H](CC(=O)NC[Si](C)(C)C)C(=O)N(C)[C@@H]([C@@H](C)CC)C(=O)N1C | 1.3 | 123 | 11 | 7.4 | 81 | 336 |
| CC[C@@H](C)[C@H]1C(=O)NCC(=O)N(C)[C@@H](C(C)C)C(=O)N[C@@H](Cc2ccc(OC)cc2)C(=O)O[C@@H](C)C(=O)N2CCCC[C@H]2C(=O)N(C)[C@@H](C(C)C)C(=O)N[C@@H](C(C)C)C(=O)N(C)[C@H](CC(=O)NC23CC4CC(CC(C4)C2)C3)C(=O)N(C)[C@@H]([C@@H](C)CC)C(=O)N1C | 3.7 | 772 | 8 | 7.7 | 92 | 290 |
| CC[C@@H](C)[C@H]1C(=O)NCC(=O)N(C)[C@@H](C(C)C)C(=O)N[C@@H](Cc2ccc(OC)cc2)C(=O)O[C@H](C)C(=O)N2CCCC[C@H]2C(=O)N(C)[C@@H](C(C)C)C(=O)N[C@@H](C(C)C)C(=O)N(C)[C@H](CC(=O)N[C@H](C(=O)OC(C)(C)C)C(C)C)C(=O)N(C)[C@@H]([C@@H](C)CC)C(=O)N1C | 1.2 | 124 | 8.5 | 6 | 15 | 187 |
| CC[C@H](C)[C@H]1C(=O)NCC(=O)N(C)[C@@H](C(C)C)C(=O)N[C@@H](Cc2ccc(OC)cc2)C(=O)O[C@@H](C)C(=O)N2CCCC[C@H]2C(=O)N(C)[C@@H](C(C)C)C(=O)N[C@@H](C(C)C)C(=O)N(C)[C@@H](CC(=O)OC(C)(C)C)C(=O)N(C)[C@@H]([C@@H](C)CC)C(=O)N1C (cyclo(G[NMeV]Y(Me)[Lac][Pip][NMeV]V[NMeD](OtBu)[NMeI][NMeI])) | 3.6 | 196 | 7 | 5.4 | 66 | 333 |
| CC[C@@H](C)[C@H]1C(=O)NCC(=O)N(C)[C@@H](C(C)C)C(=O)N[C@@H](Cc2ccc(OC)cc2)C(=O)O[C@@H](C)C(=O)N2CCCC[C@H]2C(=O)N(C)[C@@H](C(C)C)C(=O)N[C@@H](C(C)C)C(=O)N(C)[C@H](CC(=O)NCC(C)(C)C)C(=O)N(C)[C@@H]([C@@H](C)CC)C(=O)N1C | 2.2 | 82 | 13 | 8 | 95 | 358 |
| CC[C@@H](C)[C@H]1C(=O)NCC(=O)N(C)[C@@H](C(C)C)C(=O)N[C@@H](Cc2ccc(OC)cc2)C(=O)O[C@@H](C)C(=O)N2CCCC[C@H]2C(=O)N(C)[C@@H](C(C)C)C(=O)N[C@@H](C(C)C)C(=O)N(C)[C@H](CC(=O)NC(C)(C)C)C(=O)N(C)[C@@H]([C@@H](C)CC)C(=O)N1C | 1.5 | 113 | 12 | 8.4 | 70 | 343 |
| CC[C@@H](C)[C@H]1C(=O)NCC(=O)N(C)[C@@H](C(C)C)C(=O)N[C@@H](Cc2ccc(OC)cc2)C(=O)O[C@H](C)C(=O)N2CCCC[C@H]2C(=O)N(C)[C@@H](C(C)C)C(=O)N[C@@H](C(C)C)C(=O)N(C)[C@H](CC(=O)NCC(C)(C)C)C(=O)N(C)[C@@H]([C@@H](C)CC)C(=O)N1C | 1.1 | 2.3 | 12 | 7.4 | 11 | 155 |
| CC[C@H](C)[C@H]1C(=O)NCC(=O)N(C)[C@@H](C(C)C)C(=O)N[C@@H](Cc2ccc(OC)cc2)C(=O)O[C@@H](C)C(=O)N2CCCC[C@H]2C(=O)N(C)[C@@H](C(C)C)C(=O)N[C@@H](C(C)C)C(=O)N(C)[C@@H](CC(=O)OCCC(C)(C)C)C(=O)N(C)[C@@H]([C@@H](C)CC)C(=O)N1C | 1.7 | 25 | 7.9 | 6.7 | 17 | 292 |
| CC[C@H](C)[C@H]1C(=O)NCC(=O)N(C)[C@@H](C(C)C)C(=O)N[C@@H](Cc2ccc(O)cc2)C(=O)O[C@H](C)C(=O)N2CCCC[C@H]2C(=O)N(C)[C@@H](C(C)C)C(=O)N[C@@H](C(C)C)C(=O)N(C)[C@@H](CC(=O)OC(C)(C)C)C(=O)N(C)[C@@H]([C@@H](C)CC)C(=O)N1C | – | – | 14 | 6.5 | 2.5 | 172 |
| CC[C@H](C)[C@H]1C(=O)NCC(=O)N(C)[C@@H](C(C)C)C(=O)N[C@@H](Cc2ccc(OC)cc2)C(=O)O[C@H](C)C(=O)N2CCCC[C@H]2C(=O)N(C)[C@@H](C(C)C)C(=O)N[C@@H](C(C)C)C(=O)N(C)[C@@H](CC(=O)OCCC(C)(C)C)C(=O)N(C)[C@@H]([C@@H](C)CC)C(=O)N1C | – | – | 8.7 | 7.5 | 1.9 | 95 |
| CC[C@@H](C)[C@H]1C(=O)N(C)CC(=O)N(C)[C@@H](C(C)C)C(=O)N(C)[C@@H](Cc2ccc(OC)cc2)C(=O)O[C@H](C)C(=O)N2CCCC[C@H]2C(=O)N(C)[C@@H](C(C)C)C(=O)N(C)[C@@H](C(C)C)C(=O)N(C)[C@H](CC(=O)OC(C)(C)C)C(=O)N(C)[C@@H]([C@@H](C)CC)C(=O)N1C | – | – | 8.7 | 3.6 | 1.2 | 24 |
| C=CCNC(=O)C[C@@H]1C(=O)N(C)[C@@H]([C@@H](C)CC)C(=O)N(C)[C@@H]([C@H](C)CC)C(=O)NCC(=O)N(C)[C@@H](C(C)C)C(=O)N[C@@H](Cc2ccc(OC)cc2)C(=O)O[C@H](C)C(=O)N2CCCC[C@H]2C(=O)N(C)[C@@H](C(C)C)C(=O)N[C@@H](C(C)C)C(=O)N1C | – | – | 9.3 | 5 | 1.1 | 67 |
| CC[C@@H](C)[C@H]1C(=O)NCC(=O)N(C)[C@@H](C(C)C)C(=O)N[C@@H](Cc2ccc(OC)cc2)C(=O)O[C@H](C)C(=O)N2CCCC[C@H]2C(=O)N(C)[C@@H](C(C)C)C(=O)N[C@@H](C(C)C)C(=O)N(C)[C@H](CC=O)C(=O)N(C)[C@@H]([C@@H](C)CC)C(=O)N1C | – | – | 8.2 | 4.6 | 1.1 | 28 |
| CC[C@@H](C)[C@H]1C(=O)NCC(=O)N(C)[C@@H](C(C)C)C(=O)N[C@@H](Cc2ccc(OC)cc2)C(=O)O[C@H](C)C(=O)N2CCCC[C@H]2C(=O)N(C)[C@@H](C(C)C)C(=O)N[C@@H](C(C)C)C(=O)N(C)[C@H](CC(=O)N(C)C)C(=O)N(C)[C@@H]([C@@H](C)CC)C(=O)N1C | – | – | 8.5 | 5.9 | 1.2 | 36 |
| CC[C@H](C)[C@H]1C(=O)NCC(=O)N(C)[C@@H](C(C)C)C(=O)N[C@@H](Cc2ccc(OC)cc2)C(=O)O[C@H](C)C(=O)N2CCCC[C@H]2C(=O)N(C)[C@@H](C(C)C)C(=O)N[C@@H](C(C)C)C(=O)N(C)[C@@H](CC(=O)OCCC(C)C)C(=O)N(C)[C@@H]([C@@H](C)CC)C(=O)N1C | – | – | 7.8 | 5.7 | 1.3 | 57 |

Reference: ChEMBL document CHEMBL1127553, “Derivatives of a novel cyclopeptolide. 2. Synthesis, activity against multidrug resistance in CHO and KB cells in vitro, and structure-activity relationships” (1994)
